Measured values from the supplement of paper PMC10307832.

Columns and labels:
Assay in all cases: relative viability (nuclei count vs DMSO), 5 days (fraction); higher = more cells survive
[1] = compound: O=C(/C=C/c1ccccc1)NC(NC(=S)Nc1cccc2cccnc12)C(Cl)(Cl)Cl [Salubrinal] + CCNC(=O)c1noc(-c2cc(C(C)C)c(O)cc2O)c1-c1ccc(CN2CCOCC2)cc1 [Luminespib] (partner 0.01 µM)
Procedure, shortened: (§1)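 Lung cancer cell lines were pin-tool dosed in 1536-well plates on the day after seeding, with either a lone drug or a fixed anchor-drug dose plus five library-drug doses (not always all listed) in √10 steps. Nuclei were counted on 4× images after 5 days. Relative viability is the ratio of treated-well to vehicle-well nuclei counts, with each value a median of duplicate plates.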

[2] = compound: O=C(/C=C/c1ccccc1)NC(NC(=S)Nc1cccc2cccnc12)C(Cl)(Cl)Cl [Salubrinal] + Nc1ncn([C@H]2C[C@H](O)[C@@H](CO)O2)c(=O)n1 [Decitabine] (partner 2 µM)
Procedure, shortened: as §1

[3] = compound: Cc1ccc2nc(NCCN)c3ncc(C)n3c2c1 + Cc1nc(Nc2ncc(C(=O)Nc3c(C)cccc3Cl)s2)cc(N2CCN(CCO)CC2)n1 [Dasatinib] (partner 0.075 µM)
Procedure, shortened: as §1

[4] = compound: O=C(/C=C/c1ccccc1)NC(NC(=S)Nc1cccc2cccnc12)C(Cl)(Cl)Cl [Salubrinal] + Cc1nc(NC(=O)N2CCC[C@H]2C(N)=O)sc1-c1ccnc(C(C)(C)C(F)(F)F)c1 [Alpelisib] (partner 2 µM)
Procedure, shortened: as §1

Cell Line: UMC-11
- relative viability ([1]; first compound 0.08 µM): 1.06
- relative viability ([1]; first compound 0.253 µM): 0.835
- relative viability ([1]; first compound 0.8 µM): 1.14
- relative viability ([1]; first compound 2.53 µM): 1.05
- relative viability ([1]; first compound 8 µM): 1.14
- relative viability ([2]; first compound 0.08 µM): 0.548
- relative viability ([2]; first compound 0.253 µM): 0.608
- relative viability ([2]; first compound 0.8 µM): 0.674
- relative viability ([2]; first compound 2.53 µM): 0.606
- relative viability ([2]; first compound 8 µM): 0.561
- relative viability ([3]; first compound 0.04 µM): 0.475
- relative viability ([3]; first compound 0.1265 µM): 0.477
- relative viability ([3]; first compound 0.4 µM): 0.431
- relative viability ([3]; first compound 1.265 µM): 0.407
- relative viability ([3]; first compound 4 µM): 0.387
- relative viability ([4]; first compound 0.08 µM): 1.29
- relative viability ([4]; first compound 0.253 µM): 0.782
- relative viability ([4]; first compound 0.8 µM): 1.11
- relative viability ([4]; first compound 2.53 µM): 0.963
- relative viability ([4]; first compound 8 µM): 0.89
